6 compounds from patent US20240209028A1, “CNP COMPOUNDS” (priority 2022, published 2024) can be followed below.

Where two headings read alike, the source gives them in different places. Starred links: 1 amine or outer side, 2 acyl side, 3 side chain; linkers in the order of their positions; H or OH if unused. Positions of bridges follow the written chain, without caps; N, C: chain ends. Residues, ends and D or L forms follow the SMILES beside them. *: point of attachment. C18 diacid = O=C(O)CCCCCCCCCCCCCCCCC(=O)*; γGlu = O=C(O)[C@H](CCC(=O)[*:2])N[*:1]; X1 = O=C(CCCCCCCCCCCCCCCCc1nnn[nH]1)*; AEEA = NCCOCCOCC(=O)O

The series can be described thus: PK of CNP compounds after i.v. and s.c. administration to rats. The note with it: male, Sprague Dawley, rat, in vivo. The method, then:
In order to assess the i.v. and s.c. PK/PD profile of CNP compounds of the present invention, formulations of CNP compounds were administered to rats, blood samples taken and exposure and cGMP response measured.
Quantitative plasma analysis of CNP-compounds: Plasma concentrations of CNP compounds were assayed by plasma protein precipitation and analysed by turboflow liquid chromatography mass spectrometry (TF-LC-MS). Calibrators were prepared by spiking either blank rat or minipig plasma with the relevant CNP compound in the range from 0.5 to 2000 nM. Calibrators, plasma blanks or study samples were prepared for TF-LC-MS by protein precipitation by adding three or four volumes of either ethanol or methanol containing 20 nM of internal standard to one volume of sample. For some compounds, formic acid was added to the precipitation reagent (the final concentration was 1% v/v). After the addition of the precipitation reagent, the mixture was centrifuged at 6200 rpm at 4° C. for 30 minutes. After centrifugation, one volume of supernatant was mixed with two volumes of water (with 1% v/v formic acid). The mixture was analysed by TF-LC-MS using a Cyclone turboflow column (0.5×50 mm, ThermoFisher Scientific) and either a XBridge Protein BEH C4 3.5 μm 300 Åor a XBridge Protein BEH C18 3.5 μm 130 Åanalytical column (both were 50×2.1 mm and obtained from Waters). […] The mass spectrometer was operated in positive ionisation mode. A TSQ Altis mass spectrometer (ThermoFisher Scientific) was used as detector in selected reaction monitoring mode (specific transition were optimised for each CNP compound). Linear calibration curves (weighed 1/×2) were used for calculating the concentration in the plasma samples. Quality control samples were included. The deviation between nominal and calculated concentration in the calibrators and quality control samples were below 15%.
Animals and dosing: Groups of 4-6 rats (male, Sprague Dawley, 350 g at arrival, Janvier, France) per compound and route of administration were dosed with a CNP compound formulated either in A) 8 mM sodium phosphate, 250 mM glycerol, 0.007% polysorbate 20, pH 7.4 or B) 5 mM sodium acetate, 250 mM glycerol, 0.007% polysorbate 20, pH 4.0 depending on the respective compound. S.c. dose was 300 nmol/kg, at a concentration of […] resulting in a dosing volume of 0.3 mL/kg, whereas i.v. dose was 100 nmol/kg, at a concentration of […] resulting in a dosing volume of 1 mL/kg.
Sampling: Sublingual blood samples of 250 uL were collected from unanaesthetised rats in EDTA-coated vials (Microvette 600K3E ref #15.1673.100 Sarstedt) at baseline (-1 h before dosing) as well as 5 min (only i.v. dosed groups), 2 h, 6 h, 24 h, 48 h and 72 h (only for exposure analysis) post-dosing. The blood samples were quickly stored on ice and centrifuged (4° C., 8000 RPM, 5 min) within 10 min of collection. Plasma samples of 50 μL were transferred to each micronic tube for either exposure or cGMP analysis, kept on dry ice and stored in a freezer (−20° C.). Rats had access to food (Altromin) and tap water ad libitum.
Analysis: PK parameters were calculated by non-compartment analysis (NCA) using software Phoenix WinNonlin (ver. 8.1 or later, Certara) for each animal. Clearance (Cl) was calculated as: Dose/AUCinf (linear up, log down). […] Bioavailability was calculated as dose normalized AUC's: (AUC(sc)/Dose(sc))/(AUC(iv)/Dose(iv)). Values in the table are means from individual animals (n=4-6 individual animals). The subsequent plots for cGMP plasma concentration versus time are (Y-axis) mean cGMP concentration (n=4-6 individual animals) after IV dosing and (X-axis) nominal plasma sampling time.
Plasma cGMP are reported as the mean.

Where [1] appears, read: iv, i.v., about 100 nmol/kg, read-out: Cl (L/hr/kg), i.v. administration (converted).
Setting [2] is: iv, i.v., about 100 nmol/kg, read-out: T½ (hr), i.v. administration (converted).

In the case of `CC[C@H](C)[C@@H]1NC(=O)[C@H](CCCNC(=N)N)NC(=O)[C@H](CCC(=O)O)NC(=O)[C@H](CC(C)C)NC(=O)[C@H](CCCCN)NC(=O)[C@H](CC(C)C)NC(=O)CNC(=O)[C@H](Cc2ccccc2)NC(=O)[C@@H](NC(=O)CNC(=O)[C@H](CCCCN)NC(=O)[C@H](CO)NC(=O)[C@H](CC(C)C)NC(=O)CNC(=O)[C@H](CCCCN)NC(=O)[C@H](CCCCN)NC(=O)[C@H](CCC(N)=O)NC(=O)[C@H](C)NC(=O)CNC(=O)[C@H](CCCCN)NC(=O)[C@H](Cc2ccc(O)cc2)NC(=O)[C@H](CCCCN)NC(=O)[C@H](CCCNC(=N)N)NC(=O)[C@H](C)NC(=O)COCCOCCNC(=O)COCCOCCNC(=O)CC[C@H](NC(=O)CCCCCCCCCCCCCCCCC(=O)O)C(=O)O)CSSC[C@@H](C(=O)O)NC(=O)CNC(=O)[C@H](CC(C)C)NC(=O)CNC(=O)[C@H](CO)NC(=O)[C@H](CC(C)C)NC(=O)[C@H](CO)NC(=O)CNC1=O` [compound 0776] ({C18 diacid-γGlu-AEEA-AEEA}-ARKYKGAQKKGLSKGCFGLKLERIGSLSGLGC-OH; disulfide 16-32), under “iv, 100 nmol/kg”, the clearance was 0.00613 L/h/kg and the half-life was 10.7 h. For the setting “sc, 300 nmol/kg”, the bioavailability (usually dose-corrected exposure relative to a reference, in per cent) is 7.35% and the half-life was 5.63 h.

Regarding `CC[C@H](C)[C@@H]1NC(=O)[C@H](CCCNC(=N)N)NC(=O)[C@H](CC(=O)O)NC(=O)[C@H](CC(C)C)NC(=O)[C@@H]2CCCN2C(=O)[C@H](CC(C)C)NC(=O)CNC(=O)[C@H](Cc2ccccc2)NC(=O)[C@@H](NC(=O)CNC(=O)[C@H](CO)NC(=O)[C@H](CO)NC(=O)[C@@H](NC(=O)CNC(=O)[C@@H](NC(=O)[C@H](CCCCN)NC(=O)[C@H](CCC(N)=O)NC(=O)[C@H](C)NC(=O)CNC(=O)[C@H](Cc2c[nH]cn2)NC(=O)[C@H](Cc2ccc(O)cc2)NC(=O)COCCOCCNC(=O)COCCOCCNC(=O)COCCOCCNC(=O)CC[C@H](NC(=O)CCCCCCCCCCCCCCCCC(=O)O)C(=O)O)[C@@H](C)O)C(C)C)CSSC[C@@H](C(=O)O)NC(=O)CNC(=O)[C@H](CC(C)C)NC(=O)CNC(=O)[C@H](CO)NC(=O)[C@H](CC(C)C)NC(=O)[C@H](CO)NC(=O)CNC1=O` [compound 1352] ({C18 diacid-γGlu-AEEA-AEEA-AEEA}-YHGAQKTGVSSGCFGLPLDRIGSLSGLGC-OH; disulfide 13-29), under setting [1], the clearance was 0.0102 L/h/kg. For the same compound, under setting [2], the half-life is 6.34 h.

Take `CC[C@H](C)[C@@H]1NC(=O)[C@H](CCCNC(=N)N)NC(=O)[C@H](CC(=O)O)NC(=O)[C@H](CC(C)C)NC(=O)[C@@H]2CCCN2C(=O)[C@H](CC(C)C)NC(=O)CNC(=O)[C@H](Cc2ccccc2)NC(=O)[C@@H](NC(=O)CNC(=O)[C@H](CO)NC(=O)[C@H](CO)NC(=O)[C@H](CC(C)C)NC(=O)CNC(=O)[C@H](CCCCN)NC(=O)[C@H](CCCCN)NC(=O)[C@H](CCC(N)=O)NC(=O)[C@H](C)NC(=O)CNC(=O)[C@H](CCC(=O)O)NC(=O)[C@H](Cc2ccc(O)cc2)NC(=O)[C@H](CO)NC(=O)[C@H](CCCNC(=N)N)NC(=O)[C@H](C)NC(=O)[C@H](CCC(N)=O)NC(=O)[C@@H]2CCCN2C(=O)[C@H](Cc2c[nH]cn2)NC(=O)[C@H](CCC(=O)O)NC(=O)[C@H](CCC(N)=O)NC(=O)COCCOCCNC(=O)COCCOCCNC(=O)CC[C@H](NC(=O)CCCCCCCCCCCCCCCCC(=O)O)C(=O)O)CSSC[C@@H](C(=O)O)NC(=O)CNC(=O)[C@H](CC(C)C)NC(=O)CNC(=O)[C@H](CO)NC(=O)[C@H](CC(C)C)NC(=O)[C@H](CO)NC(=O)CNC1=O` [compound 1379] ({C18 diacid-γGlu-AEEA-AEEA}-QEHPQARSYEGAQKKGLSSGCFGLPLDRIGSLSGLGC-OH; disulfide 21-37; C-terminus assumed): the clearance under setting [1] was 0.0051 L/h/kg. Further, the half-life under setting [2] is 9.8 h.

Take `CC[C@H](C)[C@@H]1NC(=O)[C@H](CCCNC(=N)N)NC(=O)[C@H](CC(=O)O)NC(=O)[C@H](CC(C)C)NC(=O)[C@@H]2CCCN2C(=O)[C@H](CC(C)C)NC(=O)CNC(=O)[C@H](Cc2ccccc2)NC(=O)[C@@H](NC(=O)CNC(=O)[C@H](CCCCN)NC(=O)[C@H](CO)NC(=O)[C@H](CC(C)C)NC(=O)CNC(=O)[C@H](CCCCN)NC(=O)[C@H](CCCCN)NC(=O)[C@H](CCC(N)=O)NC(=O)[C@H](C)NC(=O)CNC(=O)[C@H](CCC(=O)O)NC(=O)[C@H](Cc2ccc(O)cc2)NC(=O)COCCOCCNC(=O)COCCOCCNC(=O)COCCOCCNC(=O)COCCOCCNC(=O)CC[C@H](NC(=O)CCCCCCCCCCCCCCCCC(=O)O)C(=O)O)CSSC[C@@H](C(=O)O)NC(=O)CNC(=O)[C@H](CC(C)C)NC(=O)CNC(=O)[C@H](CO)NC(=O)[C@H](CC(C)C)NC(=O)[C@H](CO)NC(=O)CNC1=O` [compound 1375] ({C18 diacid-γGlu-AEEA-AEEA-AEEA-AEEA}-YEGAQKKGLSKGCFGLPLDRIGSLSGLGC-OH; disulfide 13-29; C-terminus assumed): the clearance under setting [1] is 0.0057 L/h/kg. The half-life under setting [2] was 9.66 h.

On to `CC[C@H](C)[C@@H]1NC(=O)[C@H](CCCNC(=N)N)NC(=O)[C@H](CC(=O)O)NC(=O)[C@H](CC(C)C)NC(=O)[C@@H]2CCCN2C(=O)[C@H](CC(C)C)NC(=O)CNC(=O)[C@H](Cc2ccccc2)NC(=O)[C@@H](NC(=O)CNC(=O)[C@H](CO)NC(=O)[C@H](CO)NC(=O)[C@H](CC(C)C)NC(=O)CNC(=O)[C@H](CCCCN)NC(=O)[C@H](CCCCN)NC(=O)[C@H](CCC(N)=O)NC(=O)[C@H](C)NC(=O)CNC(=O)[C@H](CCCCN)NC(=O)[C@H](Cc2ccc(O)cc2)NC(=O)COCCOCCNC(=O)COCCOCCNC(=O)COCCOCCNC(=O)CC[C@H](NC(=O)CC[C@H](NC(=O)CCCCCCCCCCCCCCCCC(=O)O)C(=O)O)C(=O)O)CSSC[C@@H](C(=O)O)NC(=O)CNC(=O)[C@H](CC(C)C)NC(=O)CNC(=O)[C@H](CO)NC(=O)[C@H](CC(C)C)NC(=O)[C@H](CO)NC(=O)CNC1=O` [compound 1356] ({C18 diacid-γGlu-γGlu-AEEA-AEEA-AEEA}-YKGAQKKGLSSGCFGLPLDRIGSLSGLGC-OH; disulfide 13-29; C-terminus assumed), for which the clearance under setting [1] was 0.0141 L/h/kg. Also, the half-life under setting [2] is 3.47 h.

`CC[C@H](C)[C@@H]1NC(=O)[C@H](CCCNC(=N)N)NC(=O)[C@H](CC(=O)O)NC(=O)[C@H](CC(C)C)NC(=O)[C@@H]2CCCN2C(=O)[C@H](CC(C)C)NC(=O)CNC(=O)[C@H](Cc2ccccc2)NC(=O)[C@@H](NC(=O)CNC(=O)[C@H](CCC(N)=O)NC(=O)[C@H](CO)NC(=O)[C@H](CC(C)C)NC(=O)CNC(=O)[C@H](CO)NC(=O)[C@H](CCCCN)NC(=O)[C@H](CCC(N)=O)NC(=O)[C@H](C)NC(=O)CNC(=O)[C@H](Cc2c[nH]cn2)NC(=O)[C@H](Cc2ccc(O)cc2)NC(=O)[C@H](CCCCN)NC(=O)[C@H](CCCNC(=N)N)NC(=O)[C@H](C)NC(=O)COCCOCCNC(=O)COCCOCCNC(=O)CC[C@H](NC(=O)CC[C@H](NC(=O)CCCCCCCCCCCCCCCCc2nnn[nH]2)C(=O)O)C(=O)O)CSSC[C@@H](C(=O)O)NC(=O)CNC(=O)[C@H](CC(C)C)NC(=O)CNC(=O)[C@H](CO)NC(=O)[C@H](CC(C)C)NC(=O)[C@H](CO)NC(=O)CNC1=O` [compound 1426] ({X1-γGlu-γGlu-AEEA-AEEA}-ARKYHGAQKSGLSQGCFGLPLDRIGSLSGLGC-OH; disulfide 16-32): the clearance under setting [1] was 0.00348 L/h/kg. Besides, the half-life under setting [2] was 9.96 h.
